Legend:
[1] = Pharmacokinetic assay in mice; assay type: in vivo, BALB/c mice; settings: 5 mg/kg i.p.
Method: Five female BALB/c mice (6–8 weeks, 18–19 g) per group were purchased from JH Laboratory Animal Co., Ltd. All mice were raised at controlled temperature and humidity and had free access to food and water. Compounds were dissolved in 5% DMSO and diluted with 20% aqueous 2-hydroxypropyl-β-cyclodextrin solution to a stock concentration of 0.5 mg/mL. Each mouse was i.p. injected with the compound solution at a dose of 5 mg/kg. Blood samples collected by anticoagulant (K2EDTA)-containing tubes at 0.25, 0.5, 1, 2, 4, 8, and 24 h after injection were centrifuged at 2000× g at 4 °C for 5 min to obtain plasma. LC-MS/MS analysis of samples was carried out by an ACQUITY UPLC HSS T3 1.8-μm column. The mobile phase was a mixture of phase A (0.1% formic acid in water) and phase B (0.1% formic acid in acetonitrile), which ran in gradient mode at a flow rate of 0.6 mL/min at 60 °C. Mass spectra were obtained on an API6500 triple quadrupole equipped with an ESI source. Propranolol was used as an internal standard. The plasma concentrations of the compounds were analyzed, and the pharmacokinetic parameters were calculated via WinNonlin.

P. falciparum C2A = experiment: 3-day SYBR Green I GIA, strain C2A; assay type: cell-based; settings: Plasmodium falciparum, read-out: Resistant isolates EC50, C2A
Method: A 3-day SYBR Green I inhibition EC50 assay was performed as described previously. Briefly, highly synchronized ring-stage parasites by 5% sorbitol (1% parasitemia and 2% hematocrit) were incubated in a 96-well plate with compounds in a total volume of 200 μL. […] The parasites were cultured for 72 h before SYBR Green I staining as described above. The EC50 was calculated by GraphPad Prism. DHA was used as a positive control, and the final concentration of DMSO was 1%.

P. yoelii = experiment: In vivo blood-stage inhibition assay; set-up: species or system Plasmodium yoelii in BALB/c mice
Method: Experiment 1: Five female BALB/c mice (6 weeks, 18 g) from each experimental group were infected with 1 × 10^5 rodent malaria parasite P. yoelii via intraperitoneal (i.p) injection. After 24 h, the mice were treated with 30, 60, or 90 mg/kg/day JX21108 via i.p injection and 20 mg/kg/day piperaquine phosphate (PPQ) as a positive control for 5 days. DMSO (5%) was used as a blank control.
Experiment 2: To analyze the differences in drug potency between racemic and enantiopure forms of JX21108, five female BALB/c mice (6 weeks, 18 g) per group were treated with 60 mg/kg/day (+)-JX21108, (−)-JX21108, or JX21108 as described above. Blood smears were made daily from the blood of veins and stained by Giemsa. Parasitemia was counted from at least 5000 RBCs by microscopy. The bodyweight of the mice and the number of deaths were recorded daily. All the graphs were generated by GraphPad Prism. All experimental procedures followed the National Institutes of Health Guide for the Care and Use of Laboratory Animals, as well as the guidelines of the Animal Welfare and Committee of Institut Pasteur of Shanghai, Chinese Academy of Science, IACUC issue No. A2018009.

hHDAC2 = biological target: T1, hHDAC2 (Homo sapiens, UniProt Q92769); experiment: Human HDAC inhibition assay, hHDAC2; assay type: biochemical; settings: performed only once; read-out: Inhibitory Activity IC50, hHDAC2
T1 construct: purchased BPS Bioscience 5002
Method: (§1) SAHA and suramin were used as positive controls. The tested compounds were dissolved into 20 mM stock in 100% DMSO. […] Ten microliters of trypsin and Ac-peptide substrate/Tris buffer solution were added to start the reaction, followed by a 1-h incubation at room temperature for HDACs 1–3 and 6. Ten microliters of Ac-peptide substrate/Tris buffer solution was added to start the reaction, followed by a 4-h incubation at room temperature and a further 2-h incubation with trypsin solution for HDAC8 and Sirt 2. […] This experiment was performed only once.

[2] = tested on: P. berghei-ANKA-GFP-luc sporozoites; experiment: In vivo liver-stage parasite inhibition assay; set-up: species or system Plasmodium berghei in BALB/c mice
Method: An in vivo liver-stage parasite inhibition assay was conducted as described previously[68],[69]. Briefly, five female BALB/c mice (6 weeks, 18 g) per group were infected with 5000 P. berghei-ANKA-GFP-luc sporozoites by i.v injection followed immediately by i.v.-administered JX21108 at a single dose of 30 mg/kg or 60 mg/kg (day 0). The β-cyclodextrin was used as a blank control. For fluorescence detection, 3 mg of D-luciferin sodium (Sinochrome BC-220–10) in 100 μL of ddH2O was i.p. injected into each mouse. The fluorescence signals were visualized by an IVIS Lumina series (PerkinElmer) on days 1–4, 6, and 8 after infection. All experimental procedures followed the National Institutes of Health Guide for the Care and Use of Laboratory Animals, as well as the guidelines of the Animal Welfare and Committee of Institut Pasteur of Shanghai, Chinese Academy of Science, IACUC issue No. A2018009.

3D7^HDA1-TY1 = experiment: Sensitivity of transgenic parasites to JX21108, 3D7^HDA1-TY1; assay type: cell-based; settings: Plasmodium falciparum, 3D7, 4 h, read-out: EC50 for 3D7^HDA1-TY1
Method: Highly synchronized schizont-stage parasites were prepared and treated as described above, with adjustments. […] After washing, parasites were cultured in new CM for another 68 h. Parasite growth was monitored by SYBR Green I staining, as described above. The EC50 was calculated by GraphPad Prism.

hHDAC6 = biological target: T2, hHDAC6 (Homo sapiens, UniProt Q9UBN7); experiment: Human HDAC inhibition assay, hHDAC6; assay type: biochemical; settings: performed only once; read-out: Inhibitory Activity IC50, hHDAC6
T2 construct: purchased BPS Bioscience 50046
Method: as §1

[3] = tested on: P. falciparum NF54 stage II gametocytes; experiment: In vitro gametocyte inhibition assay, stage II; assay type: cell-based, Plasmodium falciparum; settings: NF54 luciferase line, 48 h exposure
Method: To test the activities of JX21108 against different gametocyte stages, the P. falciparum producer NF54^p230p-luc was utilized, as described previously. […] Luciferase intensity based on luciferase expression was detected as described above. The EC50 was calculated by GraphPad Prism. DMSO (1%) was used as a negative control.

hSirt2 = biological target: T3, hSirt2 (Homo sapiens, UniProt Q8IXJ6); experiment: Human HDAC inhibition assay, hSirt2; assay type: biochemical; settings: performed only once; read-out: Inhibitory Activity IC50, hSirt2
T3 construct: purchased BPS Bioscience 50013
Method: as §1

[4] = female, BALB/c, mouse, plasma, ip
[5] = 30 mg/kg and 60 mg/kg treatment groups, i.p., 5 days

T3 sequence (Q8IXJ6 whole entry): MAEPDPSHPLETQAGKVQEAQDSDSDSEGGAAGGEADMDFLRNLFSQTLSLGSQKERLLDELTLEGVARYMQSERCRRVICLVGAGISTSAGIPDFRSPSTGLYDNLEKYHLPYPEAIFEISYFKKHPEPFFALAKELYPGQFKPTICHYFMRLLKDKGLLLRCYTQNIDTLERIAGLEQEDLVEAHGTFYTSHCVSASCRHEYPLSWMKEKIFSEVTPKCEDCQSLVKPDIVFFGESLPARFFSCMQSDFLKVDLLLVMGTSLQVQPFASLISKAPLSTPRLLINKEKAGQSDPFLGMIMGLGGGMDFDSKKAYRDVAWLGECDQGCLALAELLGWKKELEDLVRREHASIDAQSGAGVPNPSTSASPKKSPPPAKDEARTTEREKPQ
T2 sequence (Q9UBN7 whole entry): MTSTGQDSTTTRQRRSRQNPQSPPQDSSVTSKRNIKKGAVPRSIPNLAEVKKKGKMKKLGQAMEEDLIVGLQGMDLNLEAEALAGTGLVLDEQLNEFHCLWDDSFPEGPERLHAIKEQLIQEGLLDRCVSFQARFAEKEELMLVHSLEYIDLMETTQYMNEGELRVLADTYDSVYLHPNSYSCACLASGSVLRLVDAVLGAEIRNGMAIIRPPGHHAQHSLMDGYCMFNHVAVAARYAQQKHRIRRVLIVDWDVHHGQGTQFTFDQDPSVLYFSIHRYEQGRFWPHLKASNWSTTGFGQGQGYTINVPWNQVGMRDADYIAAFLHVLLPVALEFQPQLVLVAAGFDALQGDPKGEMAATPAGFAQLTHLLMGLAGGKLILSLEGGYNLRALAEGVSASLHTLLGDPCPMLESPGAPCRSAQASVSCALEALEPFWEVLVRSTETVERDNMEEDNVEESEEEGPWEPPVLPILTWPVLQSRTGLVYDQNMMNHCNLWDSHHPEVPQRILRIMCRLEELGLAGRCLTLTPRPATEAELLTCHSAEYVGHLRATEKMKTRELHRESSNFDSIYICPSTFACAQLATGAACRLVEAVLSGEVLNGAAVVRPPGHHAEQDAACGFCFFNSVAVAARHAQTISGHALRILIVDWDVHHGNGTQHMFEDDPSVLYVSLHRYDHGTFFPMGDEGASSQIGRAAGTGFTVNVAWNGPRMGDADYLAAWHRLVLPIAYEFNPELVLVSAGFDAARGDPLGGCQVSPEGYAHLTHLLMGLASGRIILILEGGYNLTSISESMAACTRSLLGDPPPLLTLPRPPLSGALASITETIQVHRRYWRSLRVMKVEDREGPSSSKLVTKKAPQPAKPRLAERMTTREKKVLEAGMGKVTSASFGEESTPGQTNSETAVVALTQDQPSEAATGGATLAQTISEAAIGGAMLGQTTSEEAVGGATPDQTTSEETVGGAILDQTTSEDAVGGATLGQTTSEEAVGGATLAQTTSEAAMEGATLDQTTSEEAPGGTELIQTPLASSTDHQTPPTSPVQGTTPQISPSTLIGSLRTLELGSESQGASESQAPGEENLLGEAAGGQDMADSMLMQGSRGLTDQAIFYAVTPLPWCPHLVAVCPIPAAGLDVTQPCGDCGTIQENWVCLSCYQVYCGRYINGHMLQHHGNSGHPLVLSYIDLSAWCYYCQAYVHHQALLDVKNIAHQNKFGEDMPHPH
T1 sequence (Q92769 whole entry): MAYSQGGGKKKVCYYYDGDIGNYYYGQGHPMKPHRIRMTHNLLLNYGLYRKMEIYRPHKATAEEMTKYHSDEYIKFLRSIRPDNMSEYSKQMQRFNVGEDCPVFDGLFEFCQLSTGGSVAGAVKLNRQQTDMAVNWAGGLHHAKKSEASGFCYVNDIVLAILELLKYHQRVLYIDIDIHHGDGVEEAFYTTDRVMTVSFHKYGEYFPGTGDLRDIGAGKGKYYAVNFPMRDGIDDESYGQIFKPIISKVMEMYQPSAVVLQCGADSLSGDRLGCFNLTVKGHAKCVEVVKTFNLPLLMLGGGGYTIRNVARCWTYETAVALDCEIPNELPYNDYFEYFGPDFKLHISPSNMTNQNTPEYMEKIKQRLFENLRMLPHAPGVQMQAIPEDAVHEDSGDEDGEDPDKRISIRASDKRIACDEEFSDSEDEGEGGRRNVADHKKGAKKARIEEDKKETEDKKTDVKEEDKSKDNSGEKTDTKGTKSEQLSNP

Cl.Cn1cc(CN2CCC3(CCN(c4ncc(C(=O)NO)cn4)C3)C2)c2cc(C#N)ccc21 (stereo not shown) [JX21108]
V/F [1]: 15.4 L/kg | AUC(0-inf) [1, 4]: 434 ng·h/mL | AUC(0-t) [1, 4]: 432 ng·h/mL | half-life [1, 4]: 55.6 min | CL/F ([1]; female, BALB/c, mouse, plasma, ip, read-out: CL/F (converted)): 192 mL/min/kg | Cmax ([1]; female, BALB/c, mouse, plasma, ip, read-out: Cmax): 511 ng/mL | Tmax ([1]; female, BALB/c, mouse, plasma, ip, read-out: Tmax): 15 min | EC50 (P. falciparum C2A): 2.9 ± 0.7 nM | day on which parasites were completely cleaned up (P. yoelii; [5]): 17 days | day till which parasites were detected (P. yoelii; [5]): 8 days | relapse of malaria (P. yoelii; 90 mg/kg treatment group, i.p., 5-day treatment): no relapse of malaria was observed | survival of infected mice (P. yoelii; JX21108-treated groups 30–90 mg/kg): all the mice survived | in vivo antiplasmodial activity in P. yoelii-infected mice (P. yoelii; all doses tested (30–90 mg/kg), i.p., 5 days): strong in vivo antiplasmodial activity | IC50 (hHDAC2): 4.6 nM | effect on liver infection or subsequent blood-stage P. berghei infection ([2]; single 30 mg/kg dose i.v.): did not produce significant effects | liver infection (bioluminescence) ([2]; single 60 mg/kg dose i.v., 2 dpi): did not show signs of liver infection | blood-stage infection ([2]; single 60 mg/kg dose i.v., until 8 dpi): nor did the treated mice show any blood-stage infection | EC50 (3D7^HDA1-TY1): 330 ± 57 nM | IC50 (hHDAC6): 66 nM | EC50 [3]: 38.8 ± 17.8 nM | EC50 ([3]; Plasmodium falciparum, NF54, 48 h): 38.8 ± 17.8 nM | IC50 (hSirt2): > 10000 nM

— publication PMC7733455, “A novel multistage antiplasmodial inhibitor targeting Plasmodium falciparum histone deacetylase 1” (Cell Discovery, 2020)
